# Test results: patent US12005107B2, “Compositions comprising recombinant Bacillus cells and a fungicide” (priority 2014, dated 2024)
# Test system: Maize
# Experiment: Plant growth promotion, maize whole plant biomass after drench of growing media
# Type: in vivo
substance,measurement,setting,value
trifloxystrobin,"Efficacy % (additional % of plant weight compared with untreated control, actual effect observed)","drench at planting, after 14 days",1%
same,"Found % (plant weight, 100% = untreated control)","drench at planting, after 14 days, relative to UTC",101%
same,Whole Plant Biomass,"growing media drenched at planting, measured after 14 days, trifloxystrobin 0.024 mg/pot, BEE 7.85 × 10^8 CFU/pot",2.69 g
